This note sets out measurements from patent US10702504B2, “Degradation of tripartite motif-containing protein 24 (TRIM24) by conjugation of TRIM24 inhibitors with E3 ligase ligand and methods of use” (Dana-Farber Cancer Institute, Inc., priority 2016, dated 2020).

The assay concerns the target PHD-bromodomain of TRIM24 (Homo sapiens (Human), UniProt O15164). Briefly: TRIM24 binding alpha assay. The settings on record: Alpha Assay binding to TRIM24; compounds 50 μM to 0.002 μM. As to the method:
The alpha TRIM24 binding assay is used to assess the binding of the compounds of the application. Compounds are added at various concentrations as well as a vehicle control. Compounds that bind to TRIM24 compete away the interaction between the PHD-bromodomain of TRIM24 bound to the donor bead, and the H3K23ac histone peptide bound to the acceptor bead, which causes a decrease in signal. IC50 values are calculated.
The alpha assay was used to assess the binding of the compounds of the application to TRIM24 at various concentrations. All compounds were added at concentrations from 50 μM to 0.002 μM. Compounds that bind to TRIM24 compete with the PHD-bromodomain of TRIM24 in interacting with the donor bead, and the H3K23ac histone peptide bound to the acceptor bead, which causes a decrease in signal. IC50 values were calculated by using Graphpad PRISM's log(inhibitor) vs. response—variable slope (four parameters).

The IC50 is the concentration that gives 50% inhibition.

Molecules are shown by their SMILES. A value given as a limit tells only on which side of the number the result lay.

PHD-bromodomain of TRIM24, sequence (O15164 824-1006): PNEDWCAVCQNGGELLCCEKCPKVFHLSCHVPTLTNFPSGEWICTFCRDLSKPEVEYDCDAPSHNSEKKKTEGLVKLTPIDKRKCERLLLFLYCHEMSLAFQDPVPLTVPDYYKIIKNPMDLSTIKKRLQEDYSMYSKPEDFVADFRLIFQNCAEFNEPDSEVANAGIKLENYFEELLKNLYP

Regarding `COc1ccc(Oc2cc3c(cc2NS(=O)(=O)c2ccc(OC)c(OC)c2)n(C)c(=O)n3C)cc1` [Cmpd A, reference compound], the IC50 was > 0.5 µM.

In the case of `COc1ccc(S(=O)(=O)Nc2cc3c(cc2Oc2cccc(OCc4ccccc4)c2)n(C)c(=O)n3C)cc1OC` [Cmpd B, reference compound], the IC50 lay in the range of 0.05 to 0.1 µM.

Regarding `Cc1nc(S(=O)(=O)Nc2cc3c(cc2Oc2cccc(OCC(C)C)c2)n(C)c(=O)n3C)cn1C` [Cmpd C, reference compound], the IC50 was < 0.05 µM.

On to `CCCOc1cccc(Oc2cc3c(cc2NS(=O)(=O)c2ccc(OC)c(OC)c2)n(C)c(=O)n3C)c1` [Cmpd D, reference compound], for which the IC50 was < 0.05 µM.

Compound `CCCOc1cccc(Oc2cc3c(cc2NS(=O)(=O)c2cccc(C(=O)NCCCCNC(=O)CC45CC6CC(CC(C6)C4)C5)c2)n(C)c(=O)n3C)c1` [Cmpd E, reference compound] showed an IC50 of 0.1 to 0.5 µM.

In the case of `COc1ccc(S(=O)(=O)Nc2cc3c(cc2Oc2ccc(OCC(=O)NCCCCNC(=O)COc4cccc5c4C(=O)N(C4CCC(=O)NC4=O)C5=O)cc2)n(C)c(=O)n3C)cc1OC` (stereo not shown) [I-A1, 2-(4-((6-((3,4-dimethoxyphenyl)sulfonamido)-1,3-dimethyl-2-oxo-2,3-dihydro-1H-benzo[d]imidazol-5-yl)oxy)phenoxy)-N-(4-(2-((2-(2,6-dioxopiperidin-3-yl)-1,3-dioxoisoindolin-4-yl)oxy)acetamido)butyl)acetamide], the IC50 was > 0.5 µM.

For `COc1ccc(S(=O)(=O)Nc2cc3c(cc2Oc2ccc(OCC(=O)NCCCCCCCCNC(=O)COc4cccc5c4C(=O)N(C4CCC(=O)NC4=O)C5=O)cc2)n(C)c(=O)n3C)cc1OC` (stereo not shown) [I-A2, 2-(4-((6-((3,4-dimethoxyphenyl)sulfonamido)-1,3-dimethyl-2-oxo-2,3-dihydro-1H-benzo[d]imidazol-5-yl)oxy)phenoxy)-N-(8-(2-((2-(2,6-dioxopiperidin-3-yl)-1,3-dioxoisoindolin-4-yl)oxy)acetamido)octyl)acetamide], the IC50 is > 0.5 µM.

As for `COc1ccc(S(=O)(=O)Nc2cc3c(cc2Oc2ccc(OCC(=O)NCCCOCCOCCOCCCNC(=O)COc4cccc5c4C(=O)N(C4CCC(=O)NC4=O)C5=O)cc2)n(C)c(=O)n3C)cc1OC` (stereo not shown) [I-A3, 2-(4-((6-((3,4-dimethoxyphenyl)sulfonamido)-1,3-dimethyl-2-oxo-2,3-dihydro-1H-benzo[d]imidazol-5-yl)oxy)phenoxy)-N-(1-((2-(2,6-dioxopiperidin-3-yl)-1,3-dioxoisoindolin-4-yl)oxy)-2-oxo-7,10,13-trioxa-3-azahexadecan-16-yl)acetamide], the IC50 is > 0.5 µM.

For the compound `CCCOc1cccc(Oc2cc3c(cc2NS(=O)(=O)c2cccc(C(=O)NCCCCNC(=O)COc4cccc5c4C(=O)N(C4CCC(=O)NC4=O)C5=O)c2)n(C)c(=O)n3C)c1` (stereo not shown) [I-A4, 3-(N-(1,3-dimethyl-2-oxo-6-(3-propoxyphenoxy)-2,3-dihydro-1H-benzo[d]imidazol-5-yl)sulfamoyl)-N-(4-(2-((2-(2,6-dioxopiperidin-3-yl)-1,3-dioxoisoindolin-4-yl)oxy)acetamido)butyl)benzamide], the IC50 lay within 0.05 to 0.1 µM.

`CCCOc1cccc(Oc2cc3c(cc2NS(=O)(=O)c2cccc(C(=O)NCCCCCCCCNC(=O)COc4cccc5c4C(=O)N(C4CCC(=O)NC4=O)C5=O)c2)n(C)c(=O)n3C)c1` (stereo not shown) [I-A5, 3-(N-(1,3-dimethyl-2-oxo-6-(3-propoxyphenoxy)-2,3-dihydro-1H-benzo[d]imidazol-5-yl)sulfamoyl)-N-(8-(2-((2-(2,6-dioxopiperidin-3-yl)-1,3-dioxoisoindolin-4-yl)oxy)acetamido)octyl)benzamide] had an IC50 of 0.1 to 0.5 µM.

With `CCCOc1cccc(Oc2cc3c(cc2NS(=O)(=O)c2cccc(C(=O)NCCCOCCOCCOCCCNC(=O)COc4cccc5c4C(=O)N(C4CCC(=O)NC4=O)C5=O)c2)n(C)c(=O)n3C)c1` (stereo not shown) [I-A6, 3-(N-(1,3-dimethyl-2-oxo-6-(3-propoxyphenoxy)-2,3-dihydro-1H-benzo[d]imidazol-5-yl)sulfamoyl)-N-(1-((2-(2,6-dioxopiperidin-3-yl)-1,3-dioxoisoindolin-4-yl)oxy)-2-oxo-7,10,13-trioxa-3-azahexadecan-16-yl)benzamide], the IC50 is < 0.05 µM.

As for `Cc1nc(S(=O)(=O)Nc2cc3c(cc2Oc2cccc(OCC(=O)NCCCCNC(=O)COc4cccc5c4C(=O)N(C4CCC(=O)NC4=O)C5=O)c2)n(C)c(=O)n3C)cn1C` (stereo not shown) [I-A7, 2-(3-((6-((1,2-dimethyl-1H-imidazole)-4-sulfonamido)-1,3-dimethyl-2-oxo-2,3-dihydro-1H-benzo[d]imidazol-5-yl)oxy)phenoxy)-N-(4-(2-((2-(2,6-dioxopiperidin-3-yl)-1,3-dioxoisoindolin-4-yl)oxy)acetamido)butyl)acetamide], the IC50 was > 0.5 µM.

As to `Cc1nc(S(=O)(=O)Nc2cc3c(cc2Oc2cccc(OCC(=O)NCCCCCCCCNC(=O)COc4cccc5c4C(=O)N(C4CCC(=O)NC4=O)C5=O)c2)n(C)c(=O)n3C)cn1C` (stereo not shown) [I-A8, 2-(3-((6-((1,2-dimethyl-1H-imidazole)-4-sulfonamido)-1,3-dimethyl-2-oxo-2,3-dihydro-1H-benzo[d]imidazol-5-yl)oxy)phenoxy)-N-(8-(2-((2-(2,6-dioxopiperidin-3-yl)-1,3-dioxoisoindolin-4-yl)oxy)acetamido)octyl)acetamide], the IC50 was > 0.5 µM.

As for `Cc1nc(S(=O)(=O)Nc2cc3c(cc2Oc2cccc(OCC(=O)NCCCOCCOCCOCCCNC(=O)COc4cccc5c4C(=O)N(C4CCC(=O)NC4=O)C5=O)c2)n(C)c(=O)n3C)cn1C` (stereo not shown) [I-A9, 2-(3-((6-((1,2-dimethyl-1H-imidazole)-4-sulfonamido)-1,3-dimethyl-2-oxo-2,3-dihydro-1H-benzo[d]imidazol-5-yl)oxy)phenoxy)-N-(1-((2-(2,6-dioxopiperidin-3-yl)-1,3-dioxoisoindolin-4-yl)oxy)-2-oxo-7,10,13-trioxa-3-azahexadecan-16-yl)acetamide], the 50% inhibitory concentration (IC50) is > 0.5 µM.

As to `CCCOc1cc(OCCCCN(C)C)cc(Oc2cc3c(cc2NS(=O)(=O)c2cccc(C(=O)NCCCCNC(=O)COc4cccc5c4C(=O)N(C4CCC(=O)NC4=O)C5=O)c2)n(C)c(=O)n3C)c1` (stereo not shown) [I-A10, 3-(N-(6-(3-(4-(dimethylamino)butoxy)-5-propoxyphenoxy)-1,3-dimethyl-2-oxo-2,3-dihydro-1H-benzo[d]imidazol-5-yl)sulfamoyl)-N-(4-(2-((2-(2,6-dioxopiperidin-3-yl)-1,3-dioxoisoindolin-4-yl)oxy)acetamido)butyl)benzamide], the IC50 is < 0.05 µM.

In the case of `CCCOc1cc(OCCCCN(C)C)cc(Oc2cc3c(cc2NS(=O)(=O)c2cccc(C(=O)NCCCCCCCCNC(=O)COc4cccc5c4C(=O)N(C4CCC(=O)NC4=O)C5=O)c2)n(C)c(=O)n3C)c1` (stereo not shown) [I-A11, 3-(N-(6-(3-(4-(dimethylamino)butoxy)-5-propoxyphenoxy)-1,3-dimethyl-2-oxo-2,3-dihydro-1H-benzo[d]imidazol-5-yl)sulfamoyl)-N-(8-(1-((2-(2,6-dioxopiperidin-3-yl)-1,3-dioxoisoindolin-4-yl)oxy)acetamido)octyl)benzamide], the IC50 is < 0.05 µM.
